The text below walks through data of patent US20250353835A1, “N-TETRAZOLYL ARYL UREA-BASED DERIVATIVES, PREPARATION METHOD THEREFOR, AND USE THEREOF” (Hangzhou Yirui Pharmaceutical Technology Co., Ltd, priority 2022, published 2025).

Structures are written as SMILES.

The target in series [1] is T1, CYP1A2 (Homo sapiens, UniProt P05177).
T1 construct: The substrate method was used to determine the activity of human liver microsomal CYP450 enzyme; from tissue; host or cells: human liver microsomes
T1 sequence (P05177 1-516): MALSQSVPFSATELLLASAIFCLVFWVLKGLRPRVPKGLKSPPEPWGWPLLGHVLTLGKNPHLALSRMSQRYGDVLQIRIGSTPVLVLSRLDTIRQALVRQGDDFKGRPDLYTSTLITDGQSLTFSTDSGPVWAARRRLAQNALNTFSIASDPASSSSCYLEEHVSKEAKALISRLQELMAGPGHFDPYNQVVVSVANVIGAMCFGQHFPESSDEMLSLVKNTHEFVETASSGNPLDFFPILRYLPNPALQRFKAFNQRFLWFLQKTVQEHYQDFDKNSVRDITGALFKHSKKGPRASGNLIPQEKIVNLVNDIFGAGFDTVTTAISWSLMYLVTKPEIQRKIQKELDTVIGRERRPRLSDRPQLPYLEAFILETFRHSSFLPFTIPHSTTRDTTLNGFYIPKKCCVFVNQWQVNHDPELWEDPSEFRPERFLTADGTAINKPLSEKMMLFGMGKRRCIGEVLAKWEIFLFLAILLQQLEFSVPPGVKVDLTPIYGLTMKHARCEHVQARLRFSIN
In words: CYP450 inhibition in human liver microsomes (substrate method, LC-MS/MS). The format is in vitro ADME. As to conditions: read-out: CYP inhibition IC50 [μM], 1A2. The protocol: (§1) In addition, the LC-MS/MS method was used to determine the substrate metabolites of 5 major subtypes of human liver microsomal CYP450 enzymes (including CYP1A2, CYP2D6, CYP2C8, CYP2C9, and CYP3A4). The substrate method was used to determine the activity of human liver microsomal CYP450 enzyme. The established incubation system was verified using known inhibitors to investigate the inhibitory effect of the compound on CYP450 enzyme. For the enzyme induction test, a primary cultured human hepatocyte incubation system was used. 3-methylcholanthrene, phenobarbital, and rifampicin were used as positive control inducers of CYP1A2, CYP2B6, and CYP3A4, and phenacetin, bupropion, and testosterone were used as the substrate for CYP1A2, CYP2B6, and CYP3A4. The CYP450 enzyme activity was calculated by measuring the generation rate of 3 specific substrate metabolites in the incubation solution. Meanwhile, the total RNA was extracted from the human hepatocytes after incubation, and the real-time fluorescence quantitative PCR method was used to determine the mRNA expression level of CYP1A2, […], and CYP3A4. The enzyme activity and mRNA transcription level were used as endpoints to investigate the inductive effect of the compound on human liver P450 isoenzymes CYP1A2, […], and CYP3A4. The liver microsomal metabolism parameters in vitro are shown in Table 2B3 taking Compound 8 as an example.
On the technique in general: Microsomes from liver hold many membrane-bound enzymes, among them those of drug oxidation.

The target in series [2] is T2, CYP2C8 (Homo sapiens, UniProt P10632).
T2 construct: The substrate method was used to determine the activity of human liver microsomal CYP450 enzyme; from tissue; host or cells: human liver microsomes
T2 sequence (P10632 1-490): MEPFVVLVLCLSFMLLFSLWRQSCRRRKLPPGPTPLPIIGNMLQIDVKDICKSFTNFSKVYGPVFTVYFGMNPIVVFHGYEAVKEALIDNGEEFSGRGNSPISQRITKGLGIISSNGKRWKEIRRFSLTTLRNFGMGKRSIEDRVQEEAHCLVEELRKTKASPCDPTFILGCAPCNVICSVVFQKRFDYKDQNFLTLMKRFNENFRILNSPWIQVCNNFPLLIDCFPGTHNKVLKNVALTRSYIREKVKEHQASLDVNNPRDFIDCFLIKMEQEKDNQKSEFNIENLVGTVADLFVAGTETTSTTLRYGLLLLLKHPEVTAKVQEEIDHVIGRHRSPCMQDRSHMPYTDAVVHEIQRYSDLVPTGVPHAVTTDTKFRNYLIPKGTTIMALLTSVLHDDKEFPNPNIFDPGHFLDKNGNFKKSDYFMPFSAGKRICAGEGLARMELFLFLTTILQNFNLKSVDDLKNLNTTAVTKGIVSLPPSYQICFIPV
Described as above. The series is classed as in vitro ADME. The following applies: read-out: CYP inhibition IC50 [μM], 2C8. The protocol: as §1

In series [3] the target is T3, CYP2C9 (Homo sapiens, UniProt P11712).
T3 construct: The substrate method was used to determine the activity of human liver microsomal CYP450 enzyme; from tissue; host or cells: human liver microsomes
The description is as above. The format is in vitro ADME. The following applies: read-out: CYP inhibition IC50 [μM], 2C9. The protocol: as §1

Series [4] concerns the target T4, CYP2D6 (Homo sapiens, UniProt P10635).
T4 construct: The substrate method was used to determine the activity of human liver microsomal CYP450 enzyme; from tissue; host or cells: human liver microsomes
The series is described as above. As to conditions: read-out: CYP inhibition IC50 [μM], 2D6. The series is classed as in vitro ADME. The protocol:
as §1

Series [5] addresses T5, CYP3A4 (Homo sapiens, UniProt P08684).
T5 construct: from tissue; host or cells: human liver microsomes
The description is as above. The format is in vitro ADME. As to conditions: read-out: CYP inhibition IC50 [μM], 3A4. The protocol:
as §1

The test system of series [6] is mouse model of ragweed pollen-induced allergic conjunctivitis. The series is described as follows: Mouse model of ragweed pollen-induced allergic conjunctivitis. The format is in vivo, Balb/c mice. As to conditions: for Clinical symptom score: twice a day for 14 days, Day 14 within 30 minutes after final challenge. The protocol:
SPF-grade Balb/c mice (half male and half female, 6-8 weeks old) were used as experimental animals. On Day 0 and Day 6, ragweed pollen footpad injection was injected subcutaneously into the footpads of mice for sensitization (65 μl per mouse). On Days 10-14, in the model group, eye drop of ragweed pollen was applied to both eyes of the mice (10 μl per mouse) once a day. The eye drops were applied for 5 consecutive days to trigger local allergic conjunctivitis (Wu B, et al., Frontiers in Immunology, 2021, 12:4754). […] On Day 14, within 30 minutes after the final challenge, the ocular clinical symptoms of the mice were observed under a microscope and scored according to the scoring criteria reported by Magone et al. (MerayoLloves J, et al., J Allergy Clin Immunol (1996) 97(5):1129-40; Magone M T, et al., Clin Immunol Immunopathol (1998) 87(1):75-84), the allergic response of the eyes were observed, including 4 indexes: conjunctival edema, conjunctival congestion, eyelid congestion and edema, and tearing. The scores were recorded as 0-3 points according to the severity (including none, mild, moderate and severe). The left eye of the mouse was taken with the eyelid (keeping the conjunctiva intact), fixed with polyformaldehyde, sectioned in paraffin, Hematoxylin-Eosin stained (HE stained), and toluidine blue stained (for detection of mast cells). Photographs were taken to analyze the inflammatory cell infiltration of the conjunctival tissue, and observe whether the mast cells in the conjunctiva aggregated and whether a phenomenon of degranulation occurred. The expression of allergic indicators IL-4 and IgE in the conjunctival tissue was detected by immunohistochemistry.
The mouse eye, including the eyelids (with intact conjunctiva), was sectioned after deparaffinization, and subjected to antigen retrieval and serum blocking.
Diluted IL-4 or IgE antibodies were added and incubated overnight. After incubation with secondary antibodies, DAB staining was performed, followed by counterstaining with hematoxylin. The slides were then mounted and observed under an […], with photographs taken. Semi-quantitative analysis was conducted using Image-J software. Based on the cumulative optical density and regional area values of each image, the average optical density was calculated to detect the positive expression of IL-4 or IgE.

Setting [7] is: immunohistochemistry, 2% eye drop.

T5 sequence (P08684 whole entry): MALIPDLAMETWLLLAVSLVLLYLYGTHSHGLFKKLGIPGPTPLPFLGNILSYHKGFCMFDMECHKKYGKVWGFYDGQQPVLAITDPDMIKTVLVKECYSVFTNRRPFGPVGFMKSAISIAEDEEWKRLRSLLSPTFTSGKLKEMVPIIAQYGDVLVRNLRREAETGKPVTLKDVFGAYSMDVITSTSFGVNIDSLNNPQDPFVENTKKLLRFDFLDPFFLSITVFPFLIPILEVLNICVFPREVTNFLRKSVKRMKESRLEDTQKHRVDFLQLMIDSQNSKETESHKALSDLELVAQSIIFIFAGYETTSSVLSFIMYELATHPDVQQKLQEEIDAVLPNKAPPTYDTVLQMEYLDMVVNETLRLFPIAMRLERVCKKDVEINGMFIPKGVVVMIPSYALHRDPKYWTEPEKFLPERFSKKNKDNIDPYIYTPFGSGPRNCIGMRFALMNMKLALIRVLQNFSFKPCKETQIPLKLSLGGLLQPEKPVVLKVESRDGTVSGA
T3 sequence (P11712 whole entry): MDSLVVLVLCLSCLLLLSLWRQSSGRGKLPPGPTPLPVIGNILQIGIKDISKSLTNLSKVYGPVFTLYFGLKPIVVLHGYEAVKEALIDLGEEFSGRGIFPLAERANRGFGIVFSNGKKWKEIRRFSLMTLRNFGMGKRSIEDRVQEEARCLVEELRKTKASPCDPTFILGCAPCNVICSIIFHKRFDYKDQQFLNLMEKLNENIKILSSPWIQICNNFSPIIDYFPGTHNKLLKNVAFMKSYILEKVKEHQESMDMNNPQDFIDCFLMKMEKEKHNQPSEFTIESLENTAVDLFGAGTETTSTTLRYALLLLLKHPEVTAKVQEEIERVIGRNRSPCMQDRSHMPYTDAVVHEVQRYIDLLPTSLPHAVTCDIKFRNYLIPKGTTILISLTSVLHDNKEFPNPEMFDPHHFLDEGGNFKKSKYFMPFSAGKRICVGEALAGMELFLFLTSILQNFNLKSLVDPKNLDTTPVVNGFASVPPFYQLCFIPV
T4 sequence (P10635 whole entry): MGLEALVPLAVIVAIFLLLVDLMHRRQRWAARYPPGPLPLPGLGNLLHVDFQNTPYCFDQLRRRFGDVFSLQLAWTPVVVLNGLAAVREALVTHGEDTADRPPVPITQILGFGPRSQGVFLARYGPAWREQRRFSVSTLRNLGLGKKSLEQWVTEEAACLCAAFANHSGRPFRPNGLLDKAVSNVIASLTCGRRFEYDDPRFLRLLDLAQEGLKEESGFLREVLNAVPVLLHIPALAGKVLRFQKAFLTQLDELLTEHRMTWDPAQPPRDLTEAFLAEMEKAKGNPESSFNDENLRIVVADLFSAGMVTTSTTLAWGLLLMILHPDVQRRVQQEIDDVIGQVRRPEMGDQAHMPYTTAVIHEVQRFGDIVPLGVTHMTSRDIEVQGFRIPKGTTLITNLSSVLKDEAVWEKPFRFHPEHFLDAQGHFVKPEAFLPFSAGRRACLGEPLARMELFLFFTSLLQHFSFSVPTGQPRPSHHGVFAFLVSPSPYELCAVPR

As a reminder, the IC50 is the concentration needed to halve the response being measured. For the molecule `CCOc1ccc(-c2c(F)cc(NC(=O)N3CCC(C(C)(C)C)CC3)cc2-c2nn[nH]n2)cn1` [Compound 8, 4-(tert-butyl)-N-(4-(6-ethoxypyrid-3-yl)-3-fluoro-5-(2H-tetrazol-5-yl)phenyl)piperidine-1-carboxamide], the concentration for half-maximal inhibition (IC50) in series [1], in series [2], in series [3], in series [4] and in series [5] was 50 µM throughout. For the same molecule, the “inflammatory cell infiltration of conjunctival tissue (HE staining; in words)” value in series [6] (0.5% eye drop) was “inflammatory cell infiltration was still visible”; in series [6] (2% eye drop), “an improvement in inflammatory cell infiltration”. Further, the “mast cell degranulation (toluidine blue staining; in words)” value is recorded as “a few samples showed manifest mast cell degranulation” in series [6] (0.5% eye drop) and “no mast cell degranulation was observed” in series [6] (2% eye drop). The Clinical symptom score in series [6] (0.5% eye drop) is on record as 3.67 ± 0.36; in series [6] (2% eye drop), 1.75 ± 0.22^♦. The “expression of IgE in ocular tissue (average optical density)” value amounted to 0.72±0.12 in series [6] (immunohistochemistry, 0.5% eye drop) and 0.54±0.06 in series [6] (setting [7]). Moreover, the “expression of IL-4 in ocular tissue (average optical density)” value in series [6] (setting [7]) is recorded as 0.24±0.06.
